One experiment concerns the target Bacillus subtilis NadD (Bacillus subtilis, UniProt P54455). In kind it is biochemical.
The test system of the next experiment is CoADR (JCVISYN3A_0887). It counts as biochemical, Mycoplasma mycoides subsp. capri. To be noted: pH 7.5.
The target in a further experiment is T1, human DJ-1 (Homo sapiens, UniProt Q99497).
T1 construct: gene PARK7; recombinant; details in supplement
T1 sequence (Q99497 1-189 limits assumed): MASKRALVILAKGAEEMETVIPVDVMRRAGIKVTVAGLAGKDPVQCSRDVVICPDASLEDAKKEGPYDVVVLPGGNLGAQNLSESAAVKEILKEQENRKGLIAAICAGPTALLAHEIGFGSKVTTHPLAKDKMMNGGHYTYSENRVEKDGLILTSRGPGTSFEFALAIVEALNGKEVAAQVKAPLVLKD
Briefly: deglycase assay. In kind it is biochemical. The conditions noted are these: cited from earlier work.

The subject of experiment [1] is JCVISYN3A_0400 (DJ-1 homolog). In kind it is biochemical, Mycoplasma mycoides subsp. capri.

Chain of Bacillus subtilis NadD (P54455 whole entry): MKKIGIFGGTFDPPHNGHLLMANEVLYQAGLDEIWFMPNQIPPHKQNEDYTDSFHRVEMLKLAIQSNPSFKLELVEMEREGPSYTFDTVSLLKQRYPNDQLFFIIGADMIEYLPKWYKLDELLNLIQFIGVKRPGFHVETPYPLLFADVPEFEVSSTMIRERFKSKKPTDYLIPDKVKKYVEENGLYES

Turning to `Nc1ncnc2c1ncn2[C@@H]1O[C@H](COP(=O)(O)OP(=O)(O)OP(=O)(O)O)[C@@H](O)[C@H]1O` [ATP], the relative activity result on Bacillus subtilis NadD is reported as “whereas B. subtilis NadD strongly preferred ATP”.

For orientation: Km means the concentration of substrate that gives half-maximal velocity. On to `CC(C)(COP(=O)(O)OP(=O)(O)OC[C@H]1O[C@@H](n2cnc3c(N)ncnc32)[C@H](O)[C@@H]1OP(=O)(O)O)[C@@H](O)C(=O)NCCC(=O)NCCSSCCNC(=O)CCNC(=O)[C@H](O)C(C)(C)COP(=O)(O)OP(=O)(O)OC[C@H]1O[C@@H](n2cnc3c(N)ncnc32)[C@H](O)[C@@H]1OP(=O)(O)O` [CoAD], for which, in the experiment with CoADR (JCVISYN3A_0887), the Michaelis-Menten constant (Km) stood at 170 µM.

As for `CC(=O)C(O)SCCNC(=O)CCNC(=O)[C@H](O)C(C)(C)COP(=O)(O)OP(=O)(O)OC[C@H]1O[C@@H](n2cnc3c(N)ncnc32)[C@H](O)[C@@H]1OP(=O)(O)O` (stereo partly shown) [methylglyoxal-CoA hemithioacetal], the Michaelis constant (Km) at human DJ-1 is 144 ± 64 µM.

Regarding `CC(=O)C=O` [methylglyoxal], the Km in experiment [1] came to 1230 ± 300 µM.
